In patent publication US6541488B1, “Compositions for treating arterial thrombosis and a factor Xa inhibitor” (Sanofi-Synthelabo, priority 1997, dated 2003):
Where two headings read alike, the source gives them in different places.

Assays:
arterial thrombosis = experiment: Arterial thrombosis induced by electrical stimulation of the left common carotid in rabbits, blood flow rate measured; assay type: in vivo; conditions: rabbit; for effect on reduction in carotid blood flow rate: 45 min observation
Description: New Zealand male rabbits weighing 2.7 to 3 kg, obtained from the Lago breeding unit (France) were used. They were housed under standard conditions.
The formation of the thrombus was induced by external electrical stimulation of the left common carotid according to the Hladovec I. et al. method (Experimental arterial thrombosis in rats with continuous registration, Throm. Diathes. Haemor. 1971; 26: 407-410). The rabbits were anaesthetized with pentobarbital at the dose of 30 mg/kg iv. A segment of the left carotid artery was exposed and insulated by a piece of insulating film. Electrodes were inserted under the artery. A partial stricture inducing a 20% reduction in flow rate was made in the artery. The latter was then stimulated with the aid of a 2.5 mA current delivered by a constant current stimulator for 3 minutes. The thrombotic occlusion was evaluated by continuous measurement of the flow rate of blood in the carotid by means of an NARCO electromagnetic flow meter. This measurement was made over an observation period of 45 minutes.
For the treatment, solutions of SR 90107/ORG 31540 and of SR 121787A were prepared immediately before use in a saline solution. The solutions of SR 90107/ORG 31540 were injected by the IV route 5 minutes before induction of thrombosis in a volume of 1 ml/kg. SR 121787A was dadministered by the oral route 2 hours earlier.
The results were calculated and expressed as % reduction in blood flow rate at various times relative to time 0. They are grouped together in FIG. 1.

activated factor X (Xa) = experiment: Neutralization of activated factor X (Xa) by antithrombin III; assay type: biochemical
thrombin = thrombin (Homo sapiens, UniProt P00734); experiment: Activity on thrombin; assay type: biochemical
human plasma = experiment: Activated partial thromboplastin time (APTT) test on human plasma
platelet aggregation = experiment: Platelet aggregation induced by ADP or collagen; assay type: cell-based
induced thromboses [1] = conditions: rats; i.v. and s.c. administration; cited from earlier work
induced thromboses [2] = conditions: rats; i.v. and s.c. administration; cited from earlier work; remark: listed apart in the source
induced thromboses [3] = conditions: rabbits; i.v. and s.c. administration; cited from earlier work
[4] = rats, cited from earlier work
[5] = Toxicity studies with repeated assays; conditions: any animal species; repeated assays over 4 weeks with up to 10 mg/kg subcutaneously

Row | Compound | effect on course of the carotid output (arterial thrombosis; oral dose 10 mg/kg 2 hours before, sole active ingredient) | effect on drop of the carotid output (arterial thrombosis; oral dose 20 mg/kg 2 hours before, sole active ingredient) | effect on reduction in carotid blood flow rate (arterial thrombosis; 300 nmol/kg IV 5 minutes before induction of thrombosis) | effect on reduction in carotid blood flow rate (arterial thrombosis; 600 nmol/kg IV 5 minutes before induction of thrombosis) | catalysis of neutralization of factor Xa by antithrombin III (activated factor X (Xa)) | activity on thrombin (thrombin) | modification of activated partial thromboplastin time (APTT) (human plasma) | potentiation of platelet aggregation induced by ADP (platelet aggregation; ADP) | potentiation of platelet aggregation induced by collagen (platelet aggregation; collagen) | mutagenicity in the AMES test (AMES test) | mutagenicity in the DNA repair test (DNA repair test) | antithrombotic effects (induced thromboses [1]) | antithrombotic effects (induced thromboses [2]) | antithrombotic effects (induced thromboses [3]) | loss of blood ([4]; 21.7 mg/kg (high dose)) | increase of blood loss compared with standard heparin or LMWHs [4] | toxicological effect [5]
1 | CCOC(=O)CCN(c1nc(-c2ccc(/C(N)=N/C(=O)OCC)cc2)cs1)C1CCN(CC(=O)OCC)CC1 [SR 121787A, ethyl N-(1-ethoxycarbonylmethylpiperidin-4-yl)-N-{4-[4-{(N-ethoxycarbonylimino)(amino)methyl}phenyl]thiazol-2-yl}-3-aminopropionate] | did not significantly modify | almost completely inhibited |  |  |  |  |  |  |  |  |  |  |  |  |  |  | 
2 | methyl O-(2-deoxy-2-sulphoamino-6-O-sulfo-α-D-glucopyranosyl)-(1→)-O-(β-D-glucopyranosyluronic acid)-(1→4)-O-(2-deoxy-2-sulphoamino-3,6-di-O-sulpho-α-D-glucopyranosyl-(1→4)-O-(2-O-sulpho-Ε-L-idopyranosyl-uronic acid)-(1→4)-2-deoxy-2-sulphoamino-6-O-sulpho-α-D-glucopyranoside [SR 90107/ORG 31540] |  |  | no influence | reduced it slightly but not significantly | can be catalysed | completely devoid | hardly modifies | does not potentiate | does not potentiate | not mutagenic | not mutagenic | demonstrated | demonstrated | demonstrated | identical to that observed with 200 units anti-Xa/kg of heparin | only slightly increases blood loss | No toxicological effect
